The test has as its target T1, human TNIK (N-terminal segment, TNIK_N) (Homo sapiens, UniProt Q9UKE5).
T1 construct: made in house; host or cells: Sf21 insect cells (baculovirus)
The test is described as follows: TNIK kinase assay (mobility shift). The test is classed as biochemical. Particulars: 25 μM ATP, 1 h at room temperature. From the text:
A cDNA encoding the N-terminal segment (TNIK_N, residues 1-314) containing the kinase domain of human TNIK (NM_015028.1) was amplified from cDNA mixture synthesized from human tissue (Biochain) by PCR using the following primers: 5′-[…]-3′ ([SEQ ID NO:1]: forward primer, the underlined nucleotides indicates the location of a EheI site); 5′-[…]-3′ ([SEQ ID NO:2]: reverse primer, the underlined nucleotides indicates the location of a NotI site). The cDNA was subcloned into baculovirus transfer vector pFastBac_GSTb that includes protease cleavage site and glutathione S-transferase purification tag (GST-tag). The plasmid was purified and the insertion of the pFastBac_GSTb-TNIK_N was confirmed by DNA sequencing. Then E. coli DH10Bac competent cells were transformed with the plasmid to prepare the recombinant bacmid according to the instructions for the Bac-to-Bac™ baculovirus expression systems (Invitrogen). The Sf9 cells were transfected with the recombinant bacmid containing pFastBac_GSTb-TNIK_N using Cellfectin Reagent (Invitrogen) in SF-900II serum free media (Invitrogen). The viral supernatant was collected from the medium 72 h after transfection. The virus was amplified three times by infecting actively growing Sf9 or Sf21 cells in Grace's insect media (Invitrogen) supplemented with 10% FCS and an antibiotic-antimycotic reagent (Invitrogen) for 72 h at 27° C. in T-flask or roller bottles. The titer of amplified TNIK_N virus was estimated at 2.36×10^8 pfu/ml by using BacPAK™ Baculovirus Rapid Titer kit (Clontech).
Log-phase Sf21 cells (2×10^6 cells/ml) in the Grace's insect media were infected with the recombinant baculovirus at MOI of 3.0 and incubated in roller bottles (250 ml media per bottle) for 72 h at 27° C., after which, the cells were collected by centrifugation, and the cell pellet washed with cold PBS and kept at −80° C. until purification. The following purification procedures were carried out at 4° C. The frozen cells were thawed on ice and lysed in lysis buffer (50 mM Tris-HCl, pH 7.5, 150 mM NaCl, 1% Nonidet P-40, 5 mM DTT, 0.5 mM EDTA, 0.5 mM EGTA) supplemented with 1 mM phenylmethansulfonylfluoride, 2 μg/ml leupeptin, 2 μg/ml aprotinin, 1 mM NaF, 100 μM sodium orthovanadate, and 1 μM cantharidin by sonication. The suspended lysate was cleared by centrifugation at 9000 g for 20 min and the supernatant was incubated for 1 h with glutathione Sepharose beads (GE Healthcare). The beads were suspended in buffer-H (50 mM Tris-HCl, pH 7.5, 1 M NaCl, 1 mM DTT, 0.5 mM EDTA, 0.5 mM EGTA and 0.05% Brij35) and washed with buffer-H followed by buffer-L (50 mM Tris-HCl, pH 7.5, 150 mM NaCl, 1 mM DTT, 0.5 mM EDTA, 0.5 mM EGTA, 0.05% Brij35) in an Econo-pack column (BIO-RAD). The bound TNIK_N was eluted with elution buffer (50 mM Tris-HCl, pH 8.0, 150 mM NaCl, 1 mM DTT, 10% glycerol, 0.5 mM EDTA, 0.5 mM EGTA and 5 mM reduced glutathione). The eluted fractions were collected and determined the protein concentration by Bradford reagent (BIO-RAD). The TNIK_N fractions were pooled and desalted using 10DG column (BIORAD) equilibrated with the storage buffer (50 mM Tris-HCl, pH 7.5, 150 mM NaCl, 1 mM DTT, 10% glycerol, 0.05% Brij35). The purified TNIK_N was characterized by electrophoresis using 4-20% polyacrylamide gels and matrix-assisted laser desorption/ionization reflection time-of-flight (MALDI-TOF) mass spectrometry on a Voyager-DE RP MALDI/TOF (Applied Biosystems). TNIK_N was confirmed by the molecular weight and MASCOT Peptide Mass Fingerprint.
The kinase assays were conducted in a 20 μl volume using 384-well plates (Greiner). The reaction mixture consists of compound or vehicle (1% DMSO), 0.08 ng/μl TNIK_N, 1 μM FITC-labeled substrate peptides, FITC-x-Lys-Tyr-Lys-Thr-Leu-Arg-Gln ([SEQ ID NO.3], x: ε-aminocaproic acid), 20 mM Hepes, pH 7.5, 0.01% Triton X-100, 5 mM MgCl2, 25 μM ATP and 2 mM DTT. As blank, TNIK_N was excluded from the reaction mixture of vehicle (1% DMSO). […]
T1 sequence (Q9UKE5 1-314): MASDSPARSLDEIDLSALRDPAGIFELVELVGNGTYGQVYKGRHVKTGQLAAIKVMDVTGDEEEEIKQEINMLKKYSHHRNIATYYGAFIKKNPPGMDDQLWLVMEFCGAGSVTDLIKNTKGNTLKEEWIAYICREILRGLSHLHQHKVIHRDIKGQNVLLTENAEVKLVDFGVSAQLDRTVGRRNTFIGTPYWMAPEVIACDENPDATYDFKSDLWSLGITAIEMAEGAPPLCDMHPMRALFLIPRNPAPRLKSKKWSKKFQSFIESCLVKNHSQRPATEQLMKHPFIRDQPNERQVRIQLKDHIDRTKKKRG
Regarding `COc1ccc(Nc2nc(C(N)=O)c(NC(=O)c3ccc(NC(=O)CN4CCN(C)CC4)cc3)s2)cc1` [Compound A42, 2-(4-methoxyphenylamino)-5-{4-[2-(4-methyl-piperazin-1-yl)acetamido]benzamido}thiazole-4-carboxamide], the IC50 is 18 nM.
On to `COc1ccc(Nc2nc(C(N)=O)c(NC(=O)c3ccc(N4CCC(CO)CC4)cc3)s2)cc1` [Compound A43, 5-{4-[4-(hydroxymethyl)piperidin-1-yl]benzamido}-2-(4-methoxyphenylamino)thiazole-4-carboxamide], for which the IC50 came to 13 nM.
As for `COc1ccc(Nc2nc(C(N)=O)c(NC(=O)c3ccc(CN4CCN(C)CC4)cc3)s2)cc1` [Compound A44], the figure is 11 nM.
For the compound `COc1ccc(Nc2nc(C(N)=O)c(NC(=O)c3ccc(OCCN4CCCC4)cc3)s2)cc1` [Compound A45, 2-(4-methoxyphenylamino)-5-{4-[2-(pyrrolidin-1-yl)ethoxy]benzamido}thiazole-4-carboxamide], the half-inhibitory concentration (IC50) was found to be 22 nM.
As for `COc1ccc(Nc2nc(C(N)=O)c(NC(=O)c3ccc(OC)cc3)s2)cc1` [Compound A46, 5-(4-methoxybenzamido)-2-(4-methoxyphenyl-amino)thiazole-4-carboxamide], the figure is 16 nM.
Regarding `COc1ccc(C(=O)Nc2sc(Nc3ccncc3)nc2C(N)=O)cc1` [Compound A47, 5-(4-methoxybenzamido)-2-(pyridin-4-ylamino) thiazole-4-carboxamide], the IC50 is 3 nM.
Next, `COc1ccc(Nc2nc(C(N)=O)c(NC(=O)c3ccc(N(S(C)(=O)=O)S(C)(=O)=O)cc3)s2)cc1` [Compound A48, 2-(4-methoxyphenylamino)-5-{4-[N-(methyl-sulfonyl)methylsulfonamido]benzamido} thiazole-4-carboxamide]: 6 nM; `COc1ccc(Nc2nc(C(N)=O)c(NC(=O)c3ccc(NCCN4CCCCC4)cc3)s2)cc1` [Compound A49, 2-(4-methoxyphenylamino)-5-{4-[2-(piperidin-1-yl)ethylamino]benzamido}thiazole-4-carboxamide]: 5 nM.
As for `COc1ccc(Nc2nc(C(N)=O)c(NC(=O)c3ccc(NCCc4ccncc4)cc3)s2)cc1` [Compound A55, 2-(4-methoxyphenylamino)-5-{4-[2-(pyridin-4-yl)ethylamino]benzamido}thiazole-4-carboxamide], the figure is 10 nM; as for `COc1ccc(C(=O)Nc2sc(Nc3cncnc3)nc2C(N)=O)cc1` [Compound A69, 5-(4-methoxybenzamido)-2-(pyrimidin-5-ylamino)thiazole-4-carboxamide], 7 nM.
Consider `NC(=O)c1nc(Nc2cccnc2)sc1NC(=O)c1ccc(NCCO)cc1` [Compound A72, 5-[4-(2-hydroxyethylamino)benzamido]-2-(pyridin-3-ylamino)thiazole-4-carboxamide], for which the IC50 came to 4 nM.
For the compound `CN1CCN(c2ccc(C(=O)Nc3sc(Nc4cccnc4)nc3C(N)=O)cc2)CC1` [Compound A74, 5-[4-(4-methylpiperazin-1-yl)benzamido]-2-(pyridin-3-ylamino)thiazole-4-carboxamide], the 50% inhibitory concentration (IC50) came out at 7 nM.
As for `NC(=O)c1nc(Nc2ccncc2)sc1NC(=O)c1ccc(F)cc1` [Compound A76, 5-(4-fluorobenzamido)-2-(pyridin-4-ylamino) thiazole-4-carboxamide], the figure is 7 nM; as for `NC(=O)c1nc(Nc2cccnc2)sc1NC(=O)c1ccc(NCCc2ccncc2)cc1` [Compound A84, 2-(pyridin-3-ylamino)-5-{4-[2-(pyridin-4-yl)ethyl-amino]benzamido}thiazole-4-carboxamide], 2 nM.
As for `COc1ccc(C(=O)Nc2sc(Nc3ccnc(F)c3)nc2C(N)=O)cc1` [Compound A92, 2-(2-fluoropyridin-4-ylamino)-5-(4-methoxy-benzamido)thiazole-4-carboxamide], the figure is 3 nM.
Turning to `COc1ccc(C(=O)Nc2sc(Nc3ccc(CO)cc3)nc2C(N)=O)cc1` [Compound A102, 2-[4-(hydroxymethyl)phenylamino]-5-(4-methoxy-benzamido)thiazole-4-carboxamide], the IC50 was 6 nM.

The values above are taken from patent US20100216795A1, “TNIK INHIBITOR AND THE USE” (priority 2008, published 2010).
